Experimental data reported in patent publication US20250236589A1, “THERAPEUTIC PHENETHYLAMINE COMPOSITIONS AND METHODS OF USE” (Cybin IRL Limited, priority 2022, published 2025).
“Also recorded” adds a separate entry of the source.

What was measured:
[1] = In vitro liver microsome stability (HLM); type: in vitro ADME; conditions: human, human liver microsomes, 0.5 mg/mL microsomes, NADPH, read-out: HLM, t1/2
Experimental: In vitro stability was determined in Human (HLM), Rat (RLM), Mouse (MsLM), and dog (DLM) Liver Microsomes. All liver microsomes were purchased from a commercial supplier (e.g. XenoTech). The reaction mixture, minus NADPH, was prepared as described below. The test compound was added into the reaction mixture at a final concentration of 1 μM or co-dosed with their deuterated analog(s) at 1 μM each. The control compound, testosterone, was run simultaneously with the test compound in a separate reaction. The reaction mixture (without cofactor) was equilibrated in a shaking water bath at 37° C. for 5 minutes. The reaction was initiated by the addition of the cofactor, and the mixture was incubated in a shaking water bath at 37° C. Aliquots (150 μL) were withdrawn at 0, 5, 10, 20, 30, 60, and 120 minutes. Test compound and testosterone samples were immediately combined with 150 μL of ice-cold acetonitrile (ACN) containing 0.1% formic acid and internal standard to terminate the reaction. The samples were then mixed and centrifuged to precipitate proteins. All samples were assayed by LC-MS/MS using electrospray ionization. […] Half-lives were calculated using GraphPad software, fitting to a single-phase exponential decay equation.

C57BL/6J mice = experiment: HTR after oral or s.c. administration in C57BL/6J mice; type: in vivo, mouse
Experimental: In another experiment, C57BL/6J mice were moved to the behavior room 30 min prior to administration of the test compound. Test compound was administered either s.c. or p.o. at 1 to 10 mg/kg immediately prior to testing and HTR activity was assessed from 1-30 min and again from 120-150 by blind experienced testers in real-time.

human alpha2B receptor = human alpha2B receptor (Homo sapiens (Human), UniProt P18089); experiment: alpha2B receptor binding ([3H]rauwolscine)
Sequence of human alpha2B receptor (P18089 whole entry): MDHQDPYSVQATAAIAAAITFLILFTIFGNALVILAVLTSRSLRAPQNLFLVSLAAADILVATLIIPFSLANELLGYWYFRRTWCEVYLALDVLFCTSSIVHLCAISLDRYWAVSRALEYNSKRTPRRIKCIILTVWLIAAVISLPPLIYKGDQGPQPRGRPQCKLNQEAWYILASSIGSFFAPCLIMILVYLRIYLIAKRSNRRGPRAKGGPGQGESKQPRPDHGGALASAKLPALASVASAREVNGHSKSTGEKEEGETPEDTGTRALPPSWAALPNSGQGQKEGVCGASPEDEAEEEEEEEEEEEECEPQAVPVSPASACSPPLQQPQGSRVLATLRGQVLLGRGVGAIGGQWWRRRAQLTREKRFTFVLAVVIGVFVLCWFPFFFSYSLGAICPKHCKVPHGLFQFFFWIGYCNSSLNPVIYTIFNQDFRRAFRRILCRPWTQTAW
Experimental: At 10 μM, I-1 inhibited 97% of radioligand bound to rat alpha2 receptors.

[2] = test system: Adrenergic α2 (subtype not identified) (rat cortex); experiment: Off-target screen, radioligand displacement at 10 μM; type: binding; conditions: antagonist radioligand
[3] = PK in Sprague-Dawley rats (plasma, brain, CSF); type: in vivo, rat
Experimental: In another rat PK study, plasma, brain, and cerebrospinal fluid (CSF) distribution of I-1 was evaluated in Sprague-Dawley male rats after intravenous (IV) administration at 1 mg/kg. Plasma, brain, and CSF samples were collected at specified time points up to 8 hr postdose after single dose administration of I-1. Blood samples were collected via cardiac puncture and the animals were euthanized via CO2 inhalation after blood samples were collected. The CSF samples were collected via cisterna magna puncture with the brain tissue extracted after decapitation (N=4 animals per time point). The concentrations of compound I-1 in plasma, with K2EDTA as the anticoagulant, brain tissue, and CSF were determined by LC-MS/MS (LLOQ, 0.3 ng/mL). PK parameters for plasma, CSF, and brain tissue were calculated as described above.

[4] = male, Sprague-Dawley, rat, CSF, IV 1 mg/kg
[5] = male, Sprague-Dawley, rat, brain, IV 1 mg/kg
[6] = male, Sprague-Dawley, rat, plasma, IV 1 mg/kg

SMILES: COc1cc(SC(F)(F)F)c(OC)cc1CCN [Compound I-1, 2-(2,5-dimethoxy-4-((trifluoromethyl)thio)phenyl)ethan-1-amine]
- half-life at 1 μM [1]: > 2 h
- HTR after oral administration (C57BL/6J mice; 1, 3, 10 mg/kg p.o.): elicited the HTR; also recorded: dose-dependent increase in HTRs
- HTR duration versus DOI, oral (C57BL/6J mice; p.o.): greater duration than DOI
- Ki (human alpha2B receptor): 1020 nM
- inhibition at 10 µM [2]: 97.3%
- Tlast ([3]; CSF, IV 1 mg/kg): 6 h
- CSF concentrations as share of brain concentrations ([3]; IV 1 mg/kg): 1.6%
- Tlast ([3]; brain, IV 1 mg/kg): 8 h
- total systemic clearance relative to total hepatic blood flow ([3]; hepatic blood flow 3.31 L/hr/kg): approximately 1.4 fold
- Kp ([3]; male, Sprague-Dawley, rat, CSF/plasma, IV 1 mg/kg, read-out: CSF concentrations as share of plasma): 0.2
- AUC(0-inf) [3, 4]: 51.4 ng·h/mL
- AUC(0-t) [3, 4]: 49.9 ng·h/mL
- Cmax [3, 4]: 48.7 ng/mL
- MRT inf [3, 4]: 1.51 h
- Tmax [3, 4]: 0.083 h
- half-life [3, 4]: 1.26 h
- AUC(0-inf) [3, 5]: 3280 ng·h/mL
- AUC(0-t) [3, 5]: 3220 ng·h/mL
- Cmax [3, 5]: 1490 ng/mL
- MRT inf [3, 5]: 1.98 h
- Tmax [3, 5]: 0.25 h
- half-life [3, 5]: 1.34 h
- AUC(0-inf) [3, 6]: 210 ng·h/mL
- AUC(0-t) [3, 6]: 207 ng·h/mL
- C0 [3, 6]: 330 ng/mL
- Cmax [3, 6]: 250 ng/mL
- MRT inf [3, 6]: 1.19 h
- Tmax [3, 6]: 0.083 h
- clearance [3, 6]: 79.5 mL/min/kg
- half-life [3, 6]: 1.53 h
- Vd ([3]; male, Sprague-Dawley, rat, plasma, IV 1 mg/kg, read-out: Vss): 5.67 L/kg
- Tlast ([3]; plasma, IV 1 mg/kg): 8 h
- volume of distribution relative to total body water ([3]; total body water 0.7 L/kg): approximately 8.1 fold
